From ChEMBL document CHEMBL1146958, “The SAR of 4-substituted (6,6-bicyclic) piperidine cathepsin S inhibitors” (Bioorg Med Chem Lett, 2006) come the findings set out here.

pIC50: −log10 of the molar value.

Test [1] addresses T1, Alpha-1A adrenergic receptor (Homo sapiens) (UniProt P35348).
T1 sequence (whole entry): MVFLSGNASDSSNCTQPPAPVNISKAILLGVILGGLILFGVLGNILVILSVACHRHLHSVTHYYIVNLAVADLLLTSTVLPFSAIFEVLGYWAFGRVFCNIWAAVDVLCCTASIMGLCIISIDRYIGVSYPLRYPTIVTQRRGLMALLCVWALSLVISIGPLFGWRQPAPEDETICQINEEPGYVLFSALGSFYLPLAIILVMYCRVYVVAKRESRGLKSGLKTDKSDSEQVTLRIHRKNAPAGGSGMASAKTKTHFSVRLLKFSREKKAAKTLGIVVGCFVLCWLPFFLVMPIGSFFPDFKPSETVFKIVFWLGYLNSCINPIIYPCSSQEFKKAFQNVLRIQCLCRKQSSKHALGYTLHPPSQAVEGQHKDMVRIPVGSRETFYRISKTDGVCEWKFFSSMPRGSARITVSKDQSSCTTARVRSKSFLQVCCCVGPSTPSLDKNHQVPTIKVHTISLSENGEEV
Description: Inhibition of alpha 1A adrenergic receptor at 1 uM.

The target of the next test is Cathepsin S (Homo sapiens, UniProt P25774).
Sequence of Cathepsin S (P25774 whole entry): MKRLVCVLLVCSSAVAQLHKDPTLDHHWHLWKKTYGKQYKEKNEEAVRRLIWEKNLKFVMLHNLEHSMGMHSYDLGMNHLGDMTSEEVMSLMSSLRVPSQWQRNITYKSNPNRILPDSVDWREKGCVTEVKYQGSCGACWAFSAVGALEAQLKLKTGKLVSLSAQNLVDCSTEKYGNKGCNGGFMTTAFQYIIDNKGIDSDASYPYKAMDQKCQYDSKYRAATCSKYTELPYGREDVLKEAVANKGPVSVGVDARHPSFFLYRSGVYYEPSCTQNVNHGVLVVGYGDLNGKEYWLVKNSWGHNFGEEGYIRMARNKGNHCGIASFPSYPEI

Description for Cathepsin S: Inhibition of cathepsin S

`CS(=O)(=O)N1CCc2c(c(-c3ccc(C(F)(F)F)cc3)nn2CC(O)CN2CCC(N3C(=O)CCc4cc(Cl)ccc43)CC2)C1` (stereo unspecified): the inhibition in test [1] is under 10%.
In the case of `CS(=O)(=O)N1CCc2c(c(-c3ccc(Br)cc3)nn2CCCN2CCC(N3C(=O)COc4ccccc43)CC2)C1`, the pIC50 on Cathepsin S was 7.22.
At Cathepsin S, `CS(=O)(=O)N1CCc2c(c(-c3ccc(Br)cc3)nn2CC(O)CN2CCC(N3CCCc4ccccc43)CC2)C1` (stereo unspecified) showed a pIC50 of 6.49.
Still for that read-out and setting: the result for `CS(=O)(=O)N1CCc2c(c(-c3ccc(Br)cc3)nn2CC(O)CN2CCC(N3CCc4ccccc4C3)CC2)C1` (stereo unspecified) reads 5.75.
In turn, `CS(=O)(=O)N1CCc2c(c(-c3ccc(C(F)(F)F)cc3)nn2CCCN2CCC(N3C(=O)COc4ccccc43)CC2)C1` showed an inhibition in test [1] of 72%.
For the molecule `CS(=O)(=O)N1CCc2c(c(-c3ccc(C(F)(F)F)cc3)nn2CC(O)CN2CCN(c3ccnc4ccccc34)CC2)C1` (stereo unspecified), the negative-log IC50 (pIC50) at Cathepsin S was 5.77.
For `CS(=O)(=O)N1CCc2c(c(-c3ccc(C(F)(F)F)cc3)nn2CC(O)CN2CCC(N3C(=O)COc4ccccc43)CC2)C1` (stereo unspecified), the inhibition in test [1] was 60%. The molecule further showed a negative logarithm of the IC50 (pIC50) against Cathepsin S of 7.55.
Turning to `CS(=O)(=O)N1CCc2c(c(-c3ccc(C(F)(F)F)cc3)nn2CC(O)CN2CCC(N3C(=O)NCc4cc(Cl)ccc43)CC2)C1` (stereo unspecified), the inhibition in test [1] was 40%.
As for `CS(=O)(=O)N1CCc2c(c(-c3ccc(C(F)(F)F)cc3)nn2CC(O)CN2CCC(N3C(=O)OCc4ccccc43)CC2)C1` (stereo unspecified), on Cathepsin S, the pIC50 was 7.06.
For the molecule `CS(=O)(=O)N1CCc2c(c(-c3ccc(Br)cc3)nn2CC(O)CN2CCC(N3c4ccc(Cl)cc4CNS3(=O)=O)CC2)C1` (stereo unspecified), on Cathepsin S, the negative-log IC50 (pIC50) was 7.12.

For orientation: inhibition means the drop in the measured response relative to a control, in per cent. Higher therefore signals strong suppression. By pIC50 is commonly meant the negative decadic logarithm of the IC50, by convention in mol/L.
